Measured values taken from US20240360178A1, “MACROCYCLIC IMMUNOMODULATORS” (Bristol-Myers Squibb Company, priority 2021, published 2024).
Positions of bridges follow the written chain, without caps; N, C: chain ends. Non-standard residues stand in square brackets, D forms with d. Residues, ends and D or L forms follow the SMILES beside them. Phe(4-COOH) = N[C@@H](Cc1ccc(C(=O)O)cc1)C(=O)O; Bip = N[C@@H](Cc1ccc(-c2ccccc2)cc1)C(=O)O; dPro(4S-NH2) = N[C@@H]1CN[C@@H](C(=O)O)C1; NMeF = CN[C@@H](Cc1ccccc1)C(=O)O; 3Pal = N[C@@H](Cc1cccnc1)C(=O)O; Cit = NC(=O)NCCC[C@H](N)C(=O)O; NMeA = CN[C@@H](C)C(=O)O; Orn = NCCC[C@H](N)C(=O)O; Dap = NC[C@H](N)C(=O)O; Sar = CNCC(=O)O

target: T1, human PD-1 (Jurkat-PD-1 cells) / PE-labeled human PD-L1-Ig (Homo sapiens, UniProt Q15116); assay: Jurkat-PD-1 Cell Binding High-Content Screening Assay (CBA); Jurkat hPD1-PDL1 assay; conditions: Jurkat HPD1-PDL1 IC50, Jurkat cell line over-expressing human PD-1; PE-labeled PD-L1-Ig 20 nM final; compound incubated 2 hours at 37° C.
T1 construct: expressed in transfected cells; host or cells: Jurkat cell line over-expressing human PD-1
Method in brief: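 Jurkat cells overexpressing human PD-1 (8×10^3 per well, DMEM with 10% FCS) were preincubated with compound for 2 hours at 37° C. PE-labeled human PD-L1-Ig was then added at 20 nM final. Binding was quantified by high-content imaging.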

T1 sequence (Q15116 25-288): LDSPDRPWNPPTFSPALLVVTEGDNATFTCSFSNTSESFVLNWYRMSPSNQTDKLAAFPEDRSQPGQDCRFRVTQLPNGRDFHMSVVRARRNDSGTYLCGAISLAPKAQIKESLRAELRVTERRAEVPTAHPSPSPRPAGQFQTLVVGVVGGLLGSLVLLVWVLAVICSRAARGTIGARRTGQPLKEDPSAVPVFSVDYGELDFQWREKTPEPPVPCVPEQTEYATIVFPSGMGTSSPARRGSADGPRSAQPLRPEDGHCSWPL

With `CC(C)C[C@@H]1NC(=O)[C@H](Cc2c[nH]c3ccccc23)NC(=O)[C@H](CC(=O)O)NC(=O)[C@H](Cc2ccc(O)cc2)NC(=O)[C@H](Cc2ccccc2)NC(=O)CSC[C@@H](C(=O)NCC(N)=O)NC(=O)[C@H](CO)NC(=O)[C@H](C(C)C)NC(=O)[C@H](CC(C)C)NC(=O)[C@H](CC(N)=O)NC(=O)[C@H]2CCCN2C(=O)[C@H](CN)NC(=O)[C@H](C(C)C)NC(=O)[C@H](Cc2ccc(-c3ccccc3)cc2)NC1=O` [Example 1406] ({CH2CO}-FYDWL[Bip]V[Dap][dP]NLVSCG-NH2; thioether N-14) the IC50 was 0.35 µM.

same assay, conditions: Jurkat cell line over-expressing human PD-1; PE-labeled PD-L1-Ig 20 nM final; compound incubated 2 hours at 37° C.; read-out: Jurkat HPD1-PDL1 IC50

Point of comparison: `CC(C)C[C@@H]1NC(=O)[C@H](CCCNC(=N)N)NC(=O)[C@H](Cc2ccccc2)N(C)C(=O)[C@H](C)N(C)C(=O)[C@H](CCC(=O)O)NC(=O)[C@H](Cc2ccc(-c3ccccc3)cc2)NC(=O)[C@H](C(C)C)NC(=O)[C@H](Cc2c[nH]c3ccccc23)NC(=O)[C@H](CC(=O)O)NC(=O)[C@H](Cc2ccc(O)cc2)NC(=O)[C@H](CC(N)=O)NC(=O)CSC[C@@H](C(=O)N[C@@H](C)C(N)=O)NC(=O)[C@H](CO)NC(=O)[C@H](C(C)C)NC1=O` [Example 1382] ({CH2CO}-NYDWV[Bip]E[NMeA][NMeF]RLVSCA-NH2; thioether N-14), IC50 0.13 µM. Against it:
- CC(C)C[C@@H]1NC(=O)[C@H](CCCN)NC(=O)[C@H](Cc2ccccc2)N(C)C(=O)[C@H](C)N(C)C(=O)[C@H](CCCNC(=N)N)NC(=O)[C@H](Cc2ccc(-c3ccccc3)cc2)NC(=O)[C@H](C(C)C)NC(=O)[C@H](Cc2c[nH]c3ccccc23)NC(=O)[C@H](CC(=O)O)NC(=O)[C@H](Cc2ccc(O)cc2)NC(=O)[C@H](Cc2ccccc2)NC(=O)CSC[C@@H](C(=O)NCC(N)=O)NC(=O)[C@H](CO)NC(=O)[C@H](C(C)C)NC1=O [Example 1278] ({CH2CO}-FYDWV[Bip]R[NMeA][NMeF][Orn]LVSCG-NH2; thioether N-14) — 2.4-fold higher, 0.31 µM
- CC(C)C[C@@H]1NC(=O)[C@H](CCCNC(=N)N)NC(=O)[C@H](Cc2ccccc2)N(C)C(=O)[C@H](C)N(C)C(=O)[C@H](CCCNC(N)=O)NC(=O)[C@H](Cc2ccc(-c3ccccc3)cc2)NC(=O)[C@H](C(C)C)NC(=O)[C@H](Cc2c[nH]c3ccccc23)NC(=O)[C@H](CC(=O)O)NC(=O)[C@H](Cc2ccc(O)cc2)NC(=O)[C@H](CC(N)=O)NC(=O)CSC[C@@H](C(=O)N[C@@H](C)C(N)=O)NC(=O)[C@H](CO)NC(=O)[C@H](C(C)C)NC1=O [Example 1377] ({CH2CO}-NYDWV[Bip][Cit][NMeA][NMeF]RLVSCA-NH2; thioether N-14) — 3.2-fold lower, 0.04 µM
- CC(C)C[C@@H]1NC(=O)[C@H](CCCNC(=N)N)NC(=O)[C@H]2CCCN2C(=O)[C@H](C)N(C)C(=O)[C@H](CCCNC(=N)N)NC(=O)[C@H](Cc2ccc(-c3ccccc3)cc2)NC(=O)[C@H](C(C)C)NC(=O)[C@H](Cc2c[nH]c3ccccc23)NC(=O)[C@H](CC(=O)O)NC(=O)[C@H](Cc2ccc(O)cc2)NC(=O)[C@H](Cc2ccccc2)NC(=O)CSC[C@@H](C(=O)N[C@@H](C)C(N)=O)NC(=O)[C@H](CO)NC(=O)[C@H](C(C)C)NC1=O [Example 1122] ({CH2CO}-FYDWV[Bip]R[NMeA][dP]RLVSCA-NH2; thioether N-14) — 3.3-fold higher, 0.43 µM
- CC(C)C[C@@H]1NC(=O)[C@H](CCCNC(=N)N)NC(=O)[C@H](Cc2ccccc2)N(C)C(=O)[C@H](C)N(C)C(=O)[C@H](CCCNC(=N)N)NC(=O)[C@H](Cc2ccc(-c3ccccc3)cc2)NC(=O)[C@H](C(C)C)NC(=O)[C@H](Cc2c[nH]c3ccccc23)NC(=O)[C@H](CC(=O)O)NC(=O)[C@H](Cc2ccc(O)cc2)NC(=O)[C@H](CCCNC(=N)N)NC(=O)CSC[C@@H](C(=O)NCC(N)=O)NC(=O)[C@H](CO)NC(=O)[C@H](C(C)C)NC1=O [Example 1212] ({CH2CO}-RYDWV[Bip]R[NMeA][NMeF]RLVSCG-NH2; thioether N-14) — 4.7-fold higher, 0.61 µM
- CC(C)C[C@@H]1NC(=O)[C@H](Cc2c[nH]c3ccccc23)NC(=O)[C@H](CC(=O)O)NC(=O)[C@H](Cc2ccc(O)cc2)NC(=O)[C@H](Cc2ccccc2)NC(=O)CSC[C@@H](C(=O)N[C@@H](C)C(N)=O)NC(=O)[C@H](CO)NC(=O)[C@H](C(C)C)NC(=O)[C@H](CC(C)C)NC(=O)[C@H](CC(N)=O)NC(=O)[C@H]2C[C@H](N)CN2C(=O)[C@H]2CCCN2C(=O)[C@H](C(C)C)NC(=O)[C@H](Cc2ccc(-c3ccccc3)cc2)NC1=O [Example 1175] ({CH2CO}-FYDWL[Bip]V[dP][dPro(4S-NH2)]NLVSCA-NH2; thioether N-14) — 3.8-fold higher, 0.5 µM
- CC(C)C[C@@H]1NC(=O)[C@H](CCCNC(=N)N)NC(=O)[C@H](Cc2ccccc2)N(C)C(=O)[C@H](C)N(C)C(=O)[C@H](CCCN)NC(=O)[C@H](Cc2ccc(-c3ccccc3)cc2)NC(=O)[C@H](C(C)C)NC(=O)[C@H](Cc2c[nH]c3ccccc23)NC(=O)[C@H](CC(=O)O)NC(=O)[C@H](Cc2ccc(O)cc2)NC(=O)[C@H](Cc2cnc[nH]2)NC(=O)CSC[C@@H](C(=O)NCC(N)=O)NC(=O)[C@H](CO)NC(=O)[C@H](C(C)C)NC1=O [Example 1292] ({CH2CO}-HYDWV[Bip][Orn][NMeA][NMeF]RLVSCG-NH2; thioether N-14) — within 1.5-fold, 0.09 µM
- CC(C)C[C@@H]1NC(=O)[C@H](C(C)C)NC(=O)[C@H](Cc2ccccc2)N(C)C(=O)[C@H](C)N(C)C(=O)[C@H](CCCNC(=N)N)NC(=O)[C@H](Cc2ccc(-c3ccccc3)cc2)NC(=O)[C@H](C(C)C)NC(=O)[C@H](Cc2c[nH]c3ccccc23)NC(=O)[C@H](CC(=O)O)NC(=O)[C@H](Cc2ccc(O)cc2)NC(=O)[C@H](Cc2ccccc2)NC(=O)CSC[C@@H](C(=O)NCC(N)=O)NC(=O)[C@H](CO)NC(=O)[C@H](C(C)C)NC1=O [Example 1239] ({CH2CO}-FYDWV[Bip]R[NMeA][NMeF]VLVSCG-NH2; thioether N-14) — within 1.5-fold, 0.11 µM
- CC(C)C[C@@H]1NC(=O)[C@H](Cc2c[nH]c3ccccc23)NC(=O)[C@H](CC(=O)O)NC(=O)[C@H](Cc2ccc(O)cc2)NC(=O)[C@H](Cc2ccccc2)NC(=O)CSC[C@@H](C(=O)NCC(N)=O)NC(=O)[C@H]([C@@H](C)O)NC(=O)[C@H](C(C)C)NC(=O)[C@H](CC(C)C)NC(=O)[C@H](CC(N)=O)NC(=O)[C@H]2CCCN2C(=O)[C@H](C)N(C)C(=O)[C@H](C(C)C)NC(=O)[C@H](Cc2ccc(-c3ccccc3)cc2)NC1=O [Example 1395] ({CH2CO}-FYDWL[Bip]V[NMeA][dP]NLVTCG-NH2; thioether N-14) — within 1.5-fold, 0.16 µM
- CC(C)C[C@@H]1NC(=O)CSC[C@@H](C(=O)NCC(N)=O)NC(=O)[C@H](CO)NC(=O)[C@H](C(C)C)NC(=O)[C@H](CC(C)C)NC(=O)[C@H](CC(N)=O)NC(=O)CN(C)C(=O)[C@H](C)N(C)C(=O)[C@H](C(C)C)NC(=O)[C@H](Cc2ccc(-c3ccccc3)cc2)NC(=O)[C@H](CC(C)C)NC(=O)[C@H](Cc2c[nH]c3ccccc23)NC(=O)[C@H](CC(=O)O)NC(=O)[C@H](Cc2ccc(O)cc2)NC1=O [Example 1141] ({CH2CO}-LYDWL[Bip]V[NMeA][Sar]NLVSCG-NH2; thioether N-14) — 4.7-fold higher, 0.61 µM
- CC(C)C[C@@H]1NC(=O)[C@H](Cc2c[nH]c3ccccc23)NC(=O)[C@H](CC(=O)O)NC(=O)[C@H](Cc2ccc(O)cc2)NC(=O)[C@H](Cc2ccccc2)NC(=O)CSC[C@@H](C(=O)NCC(N)=O)NC(=O)[C@H](CO)NC(=O)[C@H](C(C)C)NC(=O)[C@H](CC(C)C)NC(=O)[C@H](CC(N)=O)NC(=O)[C@H](C)N(C)C(=O)[C@H](C)N(C)C(=O)[C@H](C(C)C)NC(=O)[C@H](Cc2ccc(-c3ccccc3)cc2)NC1=O [Example 1120] ({CH2CO}-FYDWL[Bip]V[NMeA][NMeA]NLVSCG-NH2; thioether N-14) — 3.3-fold higher, 0.43 µM
- CC(C)C[C@@H]1NC(=O)[C@H](CCCNC(=N)N)NC(=O)[C@H](Cc2ccccc2)N(C)C(=O)[C@H](C)N(C)C(=O)[C@H](CCCNC(=N)N)NC(=O)[C@H](Cc2ccc(-c3ccccc3)cc2)NC(=O)[C@H](C(C)C)NC(=O)[C@H](Cc2c[nH]c3ccccc23)NC(=O)[C@H](CC(=O)O)NC(=O)[C@H](Cc2ccc(O)cc2)NC(=O)[C@H](Cc2ccccc2)NC(=O)CSC[C@@H](C(=O)N[C@H](C(N)=O)C(C)C)NC(=O)[C@H](CO)NC(=O)[C@H](C(C)C)NC1=O [Example 1167] ({CH2CO}-FYDWV[Bip]R[NMeA][NMeF]RLVSCV-NH2; thioether N-14) — 7-fold higher, 0.91 µM
- CC(C)C[C@@H]1NC(=O)[C@H](CCCNC(=N)N)NC(=O)[C@H](Cc2ccccc2)N(C)C(=O)[C@H](C)N(C)C(=O)[C@H](CCCNC(=N)N)NC(=O)[C@H](Cc2ccc(-c3ccccc3)cc2)NC(=O)[C@H]([C@@H](C)O)NC(=O)[C@H](Cc2c[nH]c3ccccc23)NC(=O)[C@H](CC(=O)O)NC(=O)[C@H](Cc2ccc(O)cc2)NC(=O)[C@H](Cc2ccccc2)NC(=O)CSC[C@@H](C(=O)NCC(N)=O)NC(=O)[C@H](CO)NC(=O)[C@H](C(C)C)NC1=O [Example 1283] ({CH2CO}-FYDWT[Bip]R[NMeA][NMeF]RLVSCG-NH2; thioether N-14) — 5.4-fold higher, 0.7 µM
- CC(C)C[C@@H]1NC(=O)[C@H](Cc2c[nH]c3ccccc23)NC(=O)[C@H](CC(=O)O)NC(=O)[C@H](Cc2ccc(C(=O)O)cc2)NC(=O)[C@H](Cc2cccnc2)NC(=O)CSC[C@@H](C(=O)N[C@@H](C)C(N)=O)NC(=O)[C@H](CO)NC(=O)[C@H](C(C)C)NC(=O)[C@H](CC(C)C)NC(=O)[C@H](CC(N)=O)NC(=O)[C@H]2CCCN2C(=O)[C@H](C)N(C)C(=O)[C@H](C(C)C)NC(=O)[C@H](Cc2ccc(-c3ccccc3)cc2)NC1=O [Example 1025] ({CH2CO}-[3Pal][Phe(4-COOH)]DWL[Bip]V[NMeA][dP]NLVSCA-NH2; thioether N-14) — 3.2-fold lower, 0.04 µM
- CC(C)C[C@@H]1NC(=O)[C@H](CCCNC(=N)N)NC(=O)[C@H](Cc2ccccc2)N(C)C(=O)[C@H](C)N(C)C(=O)[C@H](CCCNC(=N)N)NC(=O)[C@H](Cc2ccc(-c3ccccc3)cc2)NC(=O)[C@H](C(C)C)NC(=O)[C@H](Cc2c[nH]c3ccccc23)NC(=O)[C@H](CC(=O)O)NC(=O)[C@H](Cc2ccc(O)cc2)NC(=O)[C@H](Cc2cnc[nH]2)NC(=O)CSC[C@@H](C(=O)N[C@@H](C)C(N)=O)NC(=O)[C@H](CO)NC(=O)[C@H](C(C)C)NC1=O [Example 1302] ({CH2CO}-HYDWV[Bip]R[NMeA][NMeF]RLVSCA-NH2; thioether N-14) — 2.7-fold higher, 0.35 µM
